Each molecule was assayed against T1, acetylcholine muscarinic M1 receptor (Homo sapiens, UniProt P11229) (assay: muscarinic FLIPR intracellular calcium assay, potentiation of EC20 acetylcholine in CHOnfat/hM1 cells). Settings: inflection point calculated from FLIPR values, 4 min preincubation, then EC20 acetylcholine (3 nM final), read-out: IP Value.
T1 construct: expressed in transfected cells; host or cells: CHOnfat cells (CHO), under Geneticin selection; b382 calls them CHOK1/hM1
T1 sequence (P11229 1-460): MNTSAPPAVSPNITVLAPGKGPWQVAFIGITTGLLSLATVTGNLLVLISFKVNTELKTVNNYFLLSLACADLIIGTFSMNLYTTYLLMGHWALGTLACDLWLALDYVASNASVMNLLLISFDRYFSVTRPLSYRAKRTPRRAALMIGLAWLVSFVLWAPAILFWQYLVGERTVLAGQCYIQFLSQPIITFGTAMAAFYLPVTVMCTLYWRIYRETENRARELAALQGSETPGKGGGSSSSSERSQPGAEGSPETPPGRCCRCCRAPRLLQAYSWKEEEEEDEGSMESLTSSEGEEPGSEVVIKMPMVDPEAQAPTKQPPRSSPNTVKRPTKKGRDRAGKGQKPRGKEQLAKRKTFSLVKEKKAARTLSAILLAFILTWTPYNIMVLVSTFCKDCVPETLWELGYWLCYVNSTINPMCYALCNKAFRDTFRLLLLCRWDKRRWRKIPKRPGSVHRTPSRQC
Format: cell-based
Method: The assay studies the effect of one or several concentrations of test compounds on basal or acetylcholine-stimulated Ca^2+ levels using FLIPR.
Compounds are prepared and subjected to a preincubation period of 4 min. Thereafter, a single EC20 concentration of acetylcholine is added to each well (3 nM final). The intracellular Ca^2+ level of each sample is measured and compared to an acetylcholine control to determine any modulatory activity.
Cells: CHOnfat/hM1, hM2, hM3 or hM4 cells are plated 24 hr before the assay at a density of 18,000 cells/well (100 μL) in a 384 well plate. CHOnfat/hM1 and CHOnfat/hM3 Growth Medium: 90% DMEM (Hi Glucose); 10% HI FBS; 2 mM L-glutamine; 0.1 mM NEAA; Pen-Strep; and 1 mg/ml Geneticin, are added. For M2Gqi5CHOnfat and M4Gqi5CHOnfat cells, an additional 600 ug/ml hygromycin is added.
Equipment: 384 well plate, 120 μL addition plate; 96-well Whatman 2 ml Uniplate Incubator, 37° C., 5% CO2; Skatron EMBLA-384 Plate Washer; Multimek Pipetting System; Genesis Freedom 200 System; Mosquito System; Temo Nanolitre Pipetting System; and FLIPR^384 Fluorometric Imaging Plate Reader System are used.
Buffers. Assay Buffer: Hanks Balanced Salt Solution, with 20 mM Hepes, 2.5 mM Probenecid (Sigma P-8761) first dissolved in 1 N NaOH, 1% Bovine Serum Albumin (Sigma A-9647). Dye Loading Buffer: Assay Buffer plus 1% Fetal Bovine Serum and Fluo-4AM/Pluronic Acid Mixture. 2 mM Fluo-4AM ester stock in DMSO (Molecular Probes F-14202) Concentration of 2 μM in buffer for a final concentration of 1 μM in Assay. 20% Pluronic Acid Solution stock, with concentration of 0.04% in Buffer, 0.02% in Assay.
65 μL of 2 mM Fluo-4AM are mixed with 130 μL of 20% Pluronic Acid. The resulting solution and 650 μL FBS is added to the assay buffer for a total volume of 65 mL. Positive Controls: 4-Br-A23187: 10 mM in DMSO; final concentration 10 μM. Acetylcholine: 10 mM in water, working stock at both 20 μM and 30 μM in assay buffer, final concentration of 10 μM. This is used to check the maximum stimulation of the CHOK1/hM1 cells. 20 μM (2×) acetylcholine is added in the preincubation part of the assay, and the 30 μM (3×) stock is added in the second part. (EC20)Acetylcholine: 10 mM in water, working stock of 9 nM (3×), and final concentration in assay is 3 nM. This is used after the preincubation with test compounds. Addition of the EC20 Acetylcholine to each well with a test compound will ascertain any modulator activity. 24 wells contain 3 nM Acetylcholine alone as a control.
Screening Plate: Compounds are titrated in 96-well plates (columns 2-11), 100% DMSO, started at a concentration of 15 mM (150× stock concentration), and 3-fold serial dilutions using Genesis Freedom200 System. Four 96-well plates are combined into a 384-well plate using Mosquito Nanolitre Pipetting System by transferring 1 μl of serial diluted compounds to each well, and 1 mM acetylcholine (100× stock concentration) were added as a control. Using Temo, 49 μl assay buffer is added to each well of the 384-well plate right before assay.
In a 96-well Whatman 2 ml Uniplate, 9 nM Acetylcholine (3×) is pipetted into wells corresponding to the screening compounds, and into control wells. The 30 μM acetylcholine control (3×) is added into control wells, and the 3× agonist plate is transferred into a 384 well plate.
Cells are washed three times with 100 μL of buffer, leaving 30 μL of buffer in each well. Using Multimek, 30 μL of Dye Loading Buffer is added into each well and incubated at 37° C., 5% CO2 for up to one hr.
After 60 min, the cells are washed three times with 100 μL of buffer, leaving 30 μL of buffer in each well. The cell plate, screening plate, and agonist addition plates are placed on the platform in the FLIPR and the door closed. A signal test to check background fluorescence and basal fluorescence signal is performed. Laser intensity is adjusted if necessary. […]

Compound	EC50 [nM]
Cc1ccc(-c2ccc(Cc3cc4c(=O)n([C@H]5COCC[C@@H]5O)cnc4c4ccccc34)cn2)cn1 [Example 34, 3-[(3S,4S)-4-Hydroxytetrahydro-2H-pyran-3-yl]-6-[(6′-methyl-2,3-bipyridin-5-yl)methyl]benzo[h]quinazolin-4(3H)-one]	7.1
O=c1c2cc(Cc3ccc(Cl)[n+]([O-])c3)c3ccccc3c2ncn1[C@H]1CCOC[C@@H]1O [Example 14, 6-[(6-Chloro-1-oxidopyridin-3-yl)methyl]-3-[(3R,4S)-3-hydroxytetrahydro-2H-pyran-4-yl]benzo[h]quinazolin-4(3H)-one]	59
CC(=O)N1CC[C@H](n2cnc3c(cc(Cc4ccc(Cl)nc4)c4ccccc43)c2=O)[C@@H](O)C1 (racemic) [Example 36, rac-3-[(3R,4R)-1-acetyl-3-hydroxypiperidin-4-yl]-6-[(6-chloropyridin-3-yl)methyl]benzo[h]quinazolin-4(3H)-one]	120
O=c1c2cc(Cc3ccnc(OC(F)F)c3)c3ccccc3c2ncn1[C@H]1CCOC[C@@H]1O [Example 30, 6-{[2-(Difluoromethoxy)pyridine-4-yl]methyl}-3-[(3R,4S)-3-hydroxytetrahydro-2H-pyran-4-yl]benzo[h]quinazolin-4(3H)-one]	77
O=c1c2cc(Cc3ccc(CO)nc3)c3ccccc3c2ncn1[C@H]1CCOC[C@@H]1O [Example 21, 6-{[6-(Hydroxymethyl)pyridine-3-yl]methyl}-[(3R,4S)-3-hydroxytetrahydro-2H-pyran-4-yl]benzo[h]quinazolin-4(3H)-one]	28
Cn1cc(Br)c2c(Cc3cc4c(=O)n([C@H]5CCOC[C@@H]5O)cnc4c4ccccc34)ccnc21 [Example 31, 6-[(3-Bromo-1-methyl-1H-pyrrolo[2,3-b]pyridine-4-yl)methyl]-3-[(3R,4S)-3-hydroxytetrahydro-2H-pyran-4-yl]benzo[h]quinazolin-4(3H)-one]	275
O=c1c2cc(Cc3ccnc(Cl)c3)c3ccccc3c2ncn1[C@H]1CCOC[C@@H]1O [Example 15, 6-[(2-Chloropyridin-4-yl)methyl]-3-[(3R,4S)-3-hydroxytetrahydro-2H-pyran-4-yl]benzo[h]quinazolin-4(3H)-one]	12
O=c1c2cc(Cc3ccc(Cl)nc3)c3ccccc3c2ncn1C1CCNCC1 [Example 37, 6-[(6-Chloropyridin-3-yl)methyl]-3-piperidin-4-ylbenzo[h]quinazolin-4(3H)-one]	4800
O=c1c2cc(Cc3ccc(-c4cscn4)nc3)c3ccccc3c2ncn1[C@H]1CCOC[C@@H]1O [Example 13, 3-[(3R,4S)-3-Hydroxytetrahydro-2H-pyran-4-yl]-6-{[6-(1,3-thiazol-4-yl)pyridine-3-yl]methyl}benzo[h]quinazolin-4(3H)-one]	5.8
C[S+]([O-])c1ccc(Cc2cc3c(=O)n([C@H]4CCOC[C@@H]4O)cnc3c3ccccc23)cn1 (stereo partly drawn) [Example 17, 3-[(3R,4S)-3-Hydroxytetrahydro-2H-pyran-4-yl]-6-{[6-(methylsulfinyl)pyridine-3-yl]methyl}benzo[h]quinazolin-4(3H)-one]	90
O=c1c2cc(Cc3ccc(-n4cccn4)nc3)c3ccccc3c2ncn1[C@H]1CCOC[C@@H]1O [Example 5, 3-[(3R,4S)-3-Hydroxytetrahydro-2H-pyran-4-yl]-6-{[6-(1H-pyrazol-1-yl)pyridine-3-yl]methyl}benzo[h]quinazolin-4(3H)-one]	15
O=C(O)c1ccc(Cc2cc3c(=O)n([C@H]4CCOC[C@@H]4O)cnc3c3ccccc23)cn1 [Example 18, 5-({3-[(3R,4S)-3-Hydroxytetrahydro-2H-pyran-4-yl]4-oxo-3,4-dihydrobenzo[h]quinazolin-6-yl}methyl)pyridine-2-carboxylic acid]	124
Cn1cc(-c2ccc(Cc3cc4c(=O)n([C@H]5CCOC[C@@H]5O)cnc4c4ccccc34)cn2)cn1 [Example 4, 3-[(3R,4S)-3-Hydroxytetrahydro-2H-pyran-4-yl]-6-{[6-(1-methyl-1H-pyrazol-4-yl)pyridine-3-yl]methyl}benzo[h]quinazolin-4(3H)-one]	2.5
O=c1c2cc(Cc3ccc(Cl)nc3)c3ccccc3c2ncn1[C@H]1CCSC[C@@H]1O [Example 33, 6-[(6-Chloropyridin-3-yl)methyl]-3-[(3R,4S)-3-hydroxytetrahydro-2H-thiopyran-4-yl]benzo[h]quinazolin-4(3H)-one]	10
CCc1ccc(Cc2cc3c(=O)n([C@H]4CCOC[C@@H]4O)cnc3c3ccccc23)cn1 [Example 9, 6-[(6-Ethylpyridin-3-yl)methyl]-3-[(3R,4S)-3-hydroxytetrahydro-2H-pyran-4-yl]benzo[h]quinazolin-4(3H)-one]	16

Source: US9260418B2, “Pyranyl aryl methyl benzoquinolinone M1 receptor positive allosteric modulators” (Merck Sharp & Dohme Corp., priority 2009, dated 2016)
